{"source": "paper PMC4710522", "about": "“A Novel Triazolopyridine-Based Spleen Tyrosine Kinase Inhibitor That Arrests Joint Inflammation” (PLoS ONE, 2016)", "key": {"[1]": {"target": "T1, CK1-gamma1_h (Homo sapiens, UniProt Q9HCP0)", "T1 construct": "purchased Life Technologies (Invitrogen) SelectScreen, Z'-LYTE / Adapta", "T1 sequence (Q9HCP0 whole entry)": "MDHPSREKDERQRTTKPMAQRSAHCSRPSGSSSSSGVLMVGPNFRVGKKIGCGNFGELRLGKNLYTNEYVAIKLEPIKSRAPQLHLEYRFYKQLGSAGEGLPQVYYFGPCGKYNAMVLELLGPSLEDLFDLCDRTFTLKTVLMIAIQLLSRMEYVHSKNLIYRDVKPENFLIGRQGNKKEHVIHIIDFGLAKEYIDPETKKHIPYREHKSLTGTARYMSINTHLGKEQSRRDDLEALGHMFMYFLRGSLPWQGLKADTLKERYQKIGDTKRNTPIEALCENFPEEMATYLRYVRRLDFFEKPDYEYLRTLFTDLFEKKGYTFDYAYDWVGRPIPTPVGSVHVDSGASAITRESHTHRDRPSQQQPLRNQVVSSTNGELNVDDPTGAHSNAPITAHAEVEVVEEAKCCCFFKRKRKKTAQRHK", "assay": "SelectScreen kinase assay", "format": "biochemical", "conditions": "KM ATP, read-out: % control", "procedure,_shortened": "(§1)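 ATP level varied by condition (KM for the specific enzyme, 10 µM or 100 µM), while compound stayed at 3 µM; % control calculated against uninhibited DMSO wells.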"}, "[2]": {"target": "T2, Fgr_h (Homo sapiens, UniProt P09769)", "T2 construct": "purchased Life Technologies (Invitrogen) SelectScreen, Z'-LYTE / Adapta", "T2 sequence (P09769 whole entry)": "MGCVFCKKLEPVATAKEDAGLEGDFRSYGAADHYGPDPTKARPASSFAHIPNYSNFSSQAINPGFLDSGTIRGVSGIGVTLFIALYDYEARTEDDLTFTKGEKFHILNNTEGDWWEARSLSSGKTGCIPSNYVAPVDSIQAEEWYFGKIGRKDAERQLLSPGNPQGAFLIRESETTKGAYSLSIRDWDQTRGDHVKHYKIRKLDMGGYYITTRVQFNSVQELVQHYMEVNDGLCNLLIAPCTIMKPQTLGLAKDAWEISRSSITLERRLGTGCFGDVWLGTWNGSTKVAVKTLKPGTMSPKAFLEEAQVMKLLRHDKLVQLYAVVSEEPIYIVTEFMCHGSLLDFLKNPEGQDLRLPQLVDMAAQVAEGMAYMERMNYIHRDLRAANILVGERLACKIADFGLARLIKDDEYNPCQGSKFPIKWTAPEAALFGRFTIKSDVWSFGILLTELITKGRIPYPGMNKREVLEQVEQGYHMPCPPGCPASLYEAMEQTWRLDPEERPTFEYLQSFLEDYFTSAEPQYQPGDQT", "assay": "SelectScreen kinase assay", "format": "biochemical", "conditions": "KM ATP, read-out: % control", "procedure,_shortened": "as §1"}, "[3]": {"target": "Syk_h (Homo sapiens, UniProt P43405)", "assay": "SelectScreen kinase assay", "format": "biochemical", "procedure,_shortened": "as §1"}, "[4]": {"target": "T3, Yes_h (Homo sapiens, UniProt P07947)", "T3 construct": "purchased Life Technologies (Invitrogen) SelectScreen, Z'-LYTE / Adapta", "T3 sequence (P07947 whole entry)": "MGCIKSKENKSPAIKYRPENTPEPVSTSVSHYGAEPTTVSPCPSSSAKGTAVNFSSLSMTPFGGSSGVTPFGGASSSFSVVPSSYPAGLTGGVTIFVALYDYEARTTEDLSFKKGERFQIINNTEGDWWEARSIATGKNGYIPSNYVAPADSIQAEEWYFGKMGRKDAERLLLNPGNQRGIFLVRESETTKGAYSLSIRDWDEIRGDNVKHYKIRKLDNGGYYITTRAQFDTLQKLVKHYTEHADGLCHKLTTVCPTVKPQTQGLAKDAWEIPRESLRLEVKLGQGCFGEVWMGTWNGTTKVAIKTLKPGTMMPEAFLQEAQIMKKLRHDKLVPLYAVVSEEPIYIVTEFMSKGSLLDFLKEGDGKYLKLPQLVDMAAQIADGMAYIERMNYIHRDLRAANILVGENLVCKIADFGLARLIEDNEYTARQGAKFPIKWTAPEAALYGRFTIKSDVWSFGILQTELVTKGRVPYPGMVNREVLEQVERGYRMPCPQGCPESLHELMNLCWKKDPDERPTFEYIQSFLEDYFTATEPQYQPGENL", "assay": "SelectScreen kinase assay", "format": "biochemical", "conditions": "KM ATP, read-out: % control", "procedure,_shortened": "as §1"}, "[5]": {"target": "T4, GSK3-beta_h (Homo sapiens, UniProt P49841)", "T4 construct": "purchased Life Technologies (Invitrogen) SelectScreen, Z'-LYTE / Adapta", "T4 sequence (P49841 whole entry)": "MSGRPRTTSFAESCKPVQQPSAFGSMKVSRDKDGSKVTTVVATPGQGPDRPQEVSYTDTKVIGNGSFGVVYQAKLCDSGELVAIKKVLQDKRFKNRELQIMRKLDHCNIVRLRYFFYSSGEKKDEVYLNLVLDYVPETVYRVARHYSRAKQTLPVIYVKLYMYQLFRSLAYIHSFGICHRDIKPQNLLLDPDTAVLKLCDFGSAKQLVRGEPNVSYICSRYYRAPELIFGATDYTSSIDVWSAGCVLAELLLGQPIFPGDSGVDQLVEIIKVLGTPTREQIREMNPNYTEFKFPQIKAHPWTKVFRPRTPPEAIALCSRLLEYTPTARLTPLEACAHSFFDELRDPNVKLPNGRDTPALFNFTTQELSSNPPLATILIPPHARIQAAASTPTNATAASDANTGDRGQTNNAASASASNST", "assay": "SelectScreen kinase assay", "format": "biochemical", "conditions": "KM ATP, read-out: % control", "procedure,_shortened": "as §1"}, "[6]": {"target": "T5, IRAK4_h (Homo sapiens, UniProt Q9NWZ3)", "T5 construct": "purchased Life Technologies (Invitrogen) SelectScreen, Z'-LYTE / Adapta", "T5 sequence (Q9NWZ3 whole entry)": "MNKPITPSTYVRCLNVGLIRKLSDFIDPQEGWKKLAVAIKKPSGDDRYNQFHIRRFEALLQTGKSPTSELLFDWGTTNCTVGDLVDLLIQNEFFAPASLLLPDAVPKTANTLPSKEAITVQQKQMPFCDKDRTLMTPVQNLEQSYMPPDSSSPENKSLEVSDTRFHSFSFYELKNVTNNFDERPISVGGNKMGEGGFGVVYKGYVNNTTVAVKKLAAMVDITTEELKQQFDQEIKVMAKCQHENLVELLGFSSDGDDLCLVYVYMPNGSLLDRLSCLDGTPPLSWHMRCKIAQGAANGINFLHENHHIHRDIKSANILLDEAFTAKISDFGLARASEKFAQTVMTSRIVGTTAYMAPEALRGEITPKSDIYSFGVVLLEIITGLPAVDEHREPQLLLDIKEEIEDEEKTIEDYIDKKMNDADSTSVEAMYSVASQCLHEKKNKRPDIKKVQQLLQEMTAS", "assay": "SelectScreen kinase assay", "format": "biochemical", "conditions": "KM ATP, read-out: % control", "procedure,_shortened": "as §1"}, "[7]": {"target": "T6, GRK7_h (Homo sapiens, UniProt Q8WTQ7)", "T6 construct": "purchased Life Technologies (Invitrogen) SelectScreen, Z'-LYTE / Adapta", "T6 sequence (Q8WTQ7 whole entry)": "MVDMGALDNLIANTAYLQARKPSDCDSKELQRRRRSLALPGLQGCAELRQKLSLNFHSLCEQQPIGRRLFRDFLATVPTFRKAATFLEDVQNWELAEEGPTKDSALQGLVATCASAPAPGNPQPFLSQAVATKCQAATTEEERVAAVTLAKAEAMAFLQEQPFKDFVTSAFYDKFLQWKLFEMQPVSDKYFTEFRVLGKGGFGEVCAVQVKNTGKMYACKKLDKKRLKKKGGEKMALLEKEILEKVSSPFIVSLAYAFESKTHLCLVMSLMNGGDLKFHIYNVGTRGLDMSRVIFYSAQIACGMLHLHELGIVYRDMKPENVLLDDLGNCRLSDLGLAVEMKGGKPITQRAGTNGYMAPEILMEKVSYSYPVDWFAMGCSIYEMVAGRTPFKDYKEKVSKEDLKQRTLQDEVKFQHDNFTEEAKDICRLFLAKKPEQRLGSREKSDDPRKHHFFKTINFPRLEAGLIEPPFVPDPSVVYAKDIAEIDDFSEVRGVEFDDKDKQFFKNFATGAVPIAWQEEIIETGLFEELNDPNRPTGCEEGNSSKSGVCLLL", "assay": "SelectScreen kinase assay", "format": "biochemical", "conditions": "KM ATP, read-out: % control", "procedure,_shortened": "as §1"}, "[8]": {"target": "T7, MARK2_h (Homo sapiens, UniProt Q7KZI7)", "T7 construct": "purchased Life Technologies (Invitrogen) SelectScreen, Z'-LYTE / Adapta", "T7 sequence (Q7KZI7 whole entry)": "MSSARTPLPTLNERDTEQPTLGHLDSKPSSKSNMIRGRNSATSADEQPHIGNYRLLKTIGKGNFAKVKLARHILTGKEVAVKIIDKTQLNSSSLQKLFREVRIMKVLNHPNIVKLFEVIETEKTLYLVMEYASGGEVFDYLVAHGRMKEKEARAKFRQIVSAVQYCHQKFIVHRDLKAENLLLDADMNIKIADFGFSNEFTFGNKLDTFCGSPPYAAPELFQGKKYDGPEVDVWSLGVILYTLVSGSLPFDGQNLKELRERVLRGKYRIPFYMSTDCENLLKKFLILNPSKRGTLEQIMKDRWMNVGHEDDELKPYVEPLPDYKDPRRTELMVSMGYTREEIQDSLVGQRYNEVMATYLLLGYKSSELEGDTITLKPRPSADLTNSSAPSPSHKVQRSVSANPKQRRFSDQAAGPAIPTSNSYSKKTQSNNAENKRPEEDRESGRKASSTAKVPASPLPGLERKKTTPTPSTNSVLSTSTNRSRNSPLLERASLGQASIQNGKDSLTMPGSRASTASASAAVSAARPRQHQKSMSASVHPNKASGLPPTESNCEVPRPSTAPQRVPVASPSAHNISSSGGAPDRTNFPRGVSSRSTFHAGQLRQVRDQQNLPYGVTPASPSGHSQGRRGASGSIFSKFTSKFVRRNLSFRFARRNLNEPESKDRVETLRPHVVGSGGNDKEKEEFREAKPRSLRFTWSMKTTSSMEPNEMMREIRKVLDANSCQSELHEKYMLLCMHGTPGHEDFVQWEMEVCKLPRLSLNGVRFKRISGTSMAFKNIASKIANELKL", "assay": "SelectScreen kinase assay", "format": "biochemical", "conditions": "KM ATP, read-out: % control", "procedure,_shortened": "as §1"}, "[9]": {"assay": "preclinical toxicology studies, myelosuppression in male rats", "format": "in vivo, rat"}}}
{"smiles": "c1cc(CC2CCOCC2)n2nc(Nc3ccc4c(NC5CCOCC5)n[nH]c4c3)nc2c1", "note": "[CC-509, [3-(2H-3,4,5,6-tetrahydropyran-4-ylamino)(1H-indazol-6-yl)][5-(2H-3,4,5,6-tetrahydropyran-4-ylmethyl)(2H-1,2,4-triazolo[1,5-a]pyridin-2-yl)]amine]", "values": [{"measurement": "remaining activity at 3 µM", "setting": "[1]", "value": 54, "unit": "%"}, {"measurement": "remaining activity at 3 µM", "setting": "[2]", "value": 21, "unit": "%"}, {"measurement": "remaining activity at 3 µM", "setting": "[3]; 3 µM, KM ATP, read-out: % control", "value": -2, "unit": "%"}, {"measurement": "IC50", "setting": "[3]; 10-point dose-response, commercial vendor", "value": 27.3, "unit": "nM"}, {"measurement": "remaining activity at 3 µM", "setting": "[4]", "value": 54, "unit": "%"}, {"measurement": "remaining activity at 3 µM", "setting": "[5]", "value": 88, "unit": "%"}, {"measurement": "remaining activity at 3 µM", "setting": "[6]", "value": 94, "unit": "%"}, {"measurement": "remaining activity at 3 µM", "setting": "[7]", "value": 94, "unit": "%"}, {"measurement": "remaining activity at 3 µM", "setting": "[8]", "value": 55, "unit": "%"}, {"measurement": "exposure producing myelosuppression", "setting": "[9]", "value": 630, "unit": "µM·h"}, {"measurement": "fold higher exposure producing myelosuppression than R406", "setting": "[9]", "value": "approximately 5 fold"}]}
